Results published in patent US20060069132A1, “Azolecarboxamide herbicides” (priority 2004, published 2006).
Like-named read-outs stand apart in the source and are kept apart here.

Columns and labels:
[1] = tested on: barnyardgrass; experiment: Test B pre-/postemergence herbicide test; type: in vivo, Echinochloa crus-galli; conditions: for pest or weed control at 125 g/ha / pest or weed control at 500 g/ha: Echinochloa crus-galli; for pest or weed control at 125 g/ha: 125 g ai/ha; for pest or weed control at 500 g/ha: 500 g ai/ha
How it was run: (§1)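 Response was scored visually 13 to 15 days after treatment against untreated greenhouse controls, 0 meaning no effect and 100 complete control. Formulations (solvent mixture plus surfactant) went onto soil after planting, onto foliage of 1- to 4-leaf plants, and onto 2-leaf plants in a flooded paddy set including rice and barnyardgrass.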

[2] = tested on: Surinam grass; experiment: Test B pre-/postemergence herbicide test; type: in vivo, Urochloa decumbens; conditions: for pest or weed control at 125 g/ha / pest or weed control at 500 g/ha: Urochloa decumbens; for pest or weed control at 125 g/ha: 125 g ai/ha; for pest or weed control at 500 g/ha: 500 g ai/ha
How it was run: (§2)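 Test chemicals in a non-phytotoxic solvent mixture with surfactant were applied preemergence to seeded species and postemergence to plants 2-18 cm tall (1- to 4-leaf stage); rice and barnyardgrass were also tested in a flooded paddy at the 2-leaf stage. Visual rating versus controls after 13-15 days in greenhouse, scale 0 (no effect) to 100 (complete control).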

[3] = tested on: cocklebur; experiment: Test B pre-/postemergence herbicide test; type: in vivo, Xanthium strumarium; conditions: for pest or weed control at 125 g/ha / pest or weed control at 500 g/ha: Xanthium strumarium; for pest or weed control at 125 g/ha: 125 g ai/ha; for pest or weed control at 500 g/ha: 500 g ai/ha
How it was run: as §1

[4] = tested on: corn; experiment: Test B pre-/postemergence herbicide test; type: in vivo, Zea mays
How it was run: as §2

[5] = tested on: large crabgrass; experiment: Test B pre-/postemergence herbicide test; type: in vivo, Digitaria sanguinalis; conditions: for pest or weed control at 125 g/ha / pest or weed control at 500 g/ha: Digitaria sanguinalis; for pest or weed control at 125 g/ha: 125 g ai/ha; for pest or weed control at 500 g/ha: 500 g ai/ha
How it was run: as §2

[6] = tested on: giant foxtail; experiment: Test B pre-/postemergence herbicide test; type: in vivo, Setaria faberi; conditions: for pest or weed control at 125 g/ha / pest or weed control at 500 g/ha: Setaria faberi, 336 h; for pest or weed control at 125 g/ha: 125 g ai/ha; for pest or weed control at 500 g/ha: 500 g ai/ha
How it was run: as §2

[7] = tested on: lambsquarters; experiment: Test B pre-/postemergence herbicide test; type: in vivo, Chenopodium album; conditions: for pest or weed control at 125 g/ha / pest or weed control at 500 g/ha: Chenopodium album, 336 h; for pest or weed control at 125 g/ha: 125 g ai/ha; for pest or weed control at 500 g/ha: 500 g ai/ha
How it was run: as §2

[8] = tested on: morningglory; experiment: Test B pre-/postemergence herbicide test; type: in vivo, Ipomoea coccinea; conditions: for pest or weed control at 125 g/ha / pest or weed control at 500 g/ha: Ipomoea, 336 h; for pest or weed control at 125 g/ha: 125 g ai/ha; for pest or weed control at 500 g/ha: 500 g ai/ha
How it was run: as §1

[9] = tested on: velvetleaf; experiment: Test B pre-/postemergence herbicide test; type: in vivo, Abutilon theophrasti; conditions: for pest or weed control at 125 g/ha / pest or weed control at 500 g/ha: Abutilon theophrasti, 336 h; for pest or weed control at 125 g/ha: 125 g ai/ha; for pest or weed control at 500 g/ha: 500 g ai/ha
How it was run: as §2

[10] = tested on: blackgrass; experiment: Test B postemergence herbicide test; type: in vivo, Alopecurus myosuroides
How it was run: (§3)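 Visual control ratings, 0–100 versus untreated controls, taken after 13 to 15 days in the greenhouse. Blackgrass received a postemergence spray at the 1- to 4-leaf stage (2–18 cm); ducksalad, umbrella sedge and barnyardgrass were flooded-paddy treated at 2 leaves.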

[11] = tested on: wheat; experiment: Test B postemergence herbicide test; type: in vivo, Triticum aestivum; design: key to Wheat plant response rating: 0 = no effect, 100 = complete control
How it was run: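 Treated at 2-leaf (paddy) or 1–4-leaf, 2–18 cm (postemergence); greenhouse 13–15 d; visual score vs control, 0 none to 100 complete control; dash = not tested.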

[12] = tested on: rice; experiment: Test B flooded paddy test; type: in vivo, Oryza sativa; conditions: 1000 g ai/ha, visual rating, scale 0 to 100 (0 no effect, 100 complete control), 13 to 15 days
How it was run: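 Paddy species grown to the 2-leaf stage under flooding; blackgrass sprayed postemergence at 2–18 cm (1- to 4-leaf stage). Plants kept in a greenhouse for 13 to 15 days, then visually rated against controls on 0 (no effect) to 100 (complete control).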

[13] = tested on: small flower umbrella sedge; experiment: Test B flooded paddy test; type: in vivo, Cyperus difformis; conditions: 1000 g ai/ha, visual rating, scale 0 to 100 (0 no effect, 100 complete control), 13 to 15 days
How it was run: as §3

[14] = tested on: ducksalad; experiment: Test B flooded paddy test; type: in vivo, Heteranthera limosa; conditions: 1000 g ai/ha, visual rating, scale 0 to 100 (0 no effect, 100 complete control), 13 to 15 days
How it was run: as §3

[15] = tested on: barnyardgrass; experiment: Test B flooded paddy test; type: in vivo, Echinochloa crus-galli; conditions: 1000 g ai/ha, visual rating, scale 0 to 100 (0 no effect, 100 complete control), 13 to 15 days
How it was run: as §3

[16] = post-emergence, postemergence, visual rating, scale 0 (no effect) to 100 (complete control), read-out: Barnyardgrass plant response rating
[17] = post-emergence, postemergence, visual rating, scale 0 (no effect) to 100 (complete control), read-out: Surinam Grass plant response rating
[18] = post-emergence, postemergence, visual rating, scale 0 (no effect) to 100 (complete control), read-out: Cocklebur plant response rating
[19] = post-emergence, postemergence, visual rating, scale 0 (no effect) to 100 (complete control), read-out: Crabgrass, Large plant response rating
[20] = post-emergence, postemergence, visual rating, scale 0 (no effect) to 100 (complete control), read-out: Foxtail, Giant plant response rating
[21] = post-emergence, postemergence, visual rating, scale 0 (no effect) to 100 (complete control), read-out: Lambsquarters plant response rating
[22] = post-emergence, postemergence, visual rating, scale 0 (no effect) to 100 (complete control), read-out: Morningglory plant response rating
[23] = post-emergence, postemergence, visual rating, scale 0 (no effect) to 100 (complete control), read-out: Velvetleaf plant response rating
[24] = Postemergence, 250 g ai/ha, scale 0 (no effect) to 100 (complete control)
[25] = postemergence, 62 g ai/ha, scale 0 to 100

SMILES: CCn1nc(C(C)(C)C)cc1C(=O)Nc1cc(C(=O)OC)ccn1 [Compound 151, methyl 2-[[[3-(1,1-dimethylethyl)-1-ethyl-1H-pyrazol-5-yl]carbonyl]amino]-4-pyridinecarboxylate]
- pest or weed control at 125 g/ha [1, 16]: 0%
- pest or weed control at 500 g/ha [1, 16]: 10%
- pest or weed control at 500 g/ha ([1]; pre-emergence, visual rating 0-100, 0 no effect, 100 complete control, read-out: Plant response rating, Barnyardgrass): 10%
- pest or weed control at 125 g/ha ([1]; pre-emergence, preemergence, 0 to 100 scale, 0 is no effect, 100 is complete control, read-out: Plant response rating, Barnyardgrass): 0%
- pest or weed control at 125 g/ha [2, 17]: 10%
- pest or weed control at 500 g/ha [2, 17]: 10%
- pest or weed control at 500 g/ha ([2]; pre-emergence, visual rating 0-100, 0 no effect, 100 complete control, read-out: Plant response rating, Surinam Grass): 10%
- pest or weed control at 125 g/ha ([2]; pre-emergence, preemergence, 0 to 100 scale, 0 is no effect, 100 is complete control, read-out: Plant response rating, Surinam Grass): 0%
- pest or weed control at 125 g/ha [3, 18]: 0%
- pest or weed control at 500 g/ha [3, 18]: 0%
- pest or weed control at 500 g/ha ([3]; pre-emergence, visual rating 0-100, 0 no effect, 100 complete control, read-out: Plant response rating, Cocklebur): 0%
- pest or weed control at 125 g/ha ([3]; pre-emergence, preemergence, 0 to 100 scale, 0 is no effect, 100 is complete control, read-out: Plant response rating, Cocklebur): 0%
- plant injury at 125 g/ha ([4]; Zea mays, post-emergence, postemergence, 125 g ai/ha, visual rating, scale 0 (no effect) to 100 (complete control), read-out: Corn plant response rating): 10%
- plant injury at 500 g/ha ([4]; Zea mays, post-emergence, postemergence, 500 g ai/ha, visual rating, scale 0 (no effect) to 100 (complete control), read-out: Corn plant response rating): 10%
- Corn plant response rating (crop injury, 0 = no effect, 100 = complete kill) at 500 g/ha ([4]; Zea mays, pre-emergence, 500 g ai/ha, visual rating 0-100, 0 no effect, 100 complete control): 0%
- Corn plant response rating (crop injury, 0 = no effect, 100 = complete kill) at 125 g/ha ([4]; Zea mays, pre-emergence, preemergence, 125 g ai/ha, 0 to 100 scale, 0 is no effect, 100 is complete control): 0%
- pest or weed control at 125 g/ha [5, 19]: 0%
- pest or weed control at 500 g/ha [5, 19]: 0%
- pest or weed control at 500 g/ha ([5]; pre-emergence, visual rating 0-100, 0 no effect, 100 complete control, read-out: Plant response rating, Crabgrass, Large): 10%
- pest or weed control at 125 g/ha ([5]; pre-emergence, preemergence, 0 to 100 scale, 0 is no effect, 100 is complete control, read-out: Plant response rating, Crabgrass, Large): 0%
- pest or weed control at 125 g/ha [6, 20]: 10%
- pest or weed control at 500 g/ha [6, 20]: 20%
- pest or weed control at 500 g/ha ([6]; pre-emergence, visual rating 0-100, 0 no effect, 100 complete control, read-out: Plant response rating, Foxtail, Giant): 10%
- pest or weed control at 125 g/ha ([6]; pre-emergence, preemergence, 0 to 100 scale, 0 is no effect, 100 is complete control, read-out: Plant response rating, Foxtail, Giant): 0%
- pest or weed control at 125 g/ha [7, 21]: 0%
- pest or weed control at 500 g/ha [7, 21]: 50%
- pest or weed control at 500 g/ha ([7]; pre-emergence, visual rating 0-100, 0 no effect, 100 complete control, read-out: Plant response rating, Lambsquarters): 0%
- pest or weed control at 125 g/ha ([7]; pre-emergence, preemergence, 0 to 100 scale, 0 is no effect, 100 is complete control, read-out: Plant response rating, Lambsquarters): 0%
- pest or weed control at 125 g/ha [8, 22]: 10%
- pest or weed control at 500 g/ha [8, 22]: 30%
- pest or weed control at 500 g/ha ([8]; pre-emergence, visual rating 0-100, 0 no effect, 100 complete control, read-out: Plant response rating, Morningglory): 0%
- pest or weed control at 125 g/ha ([8]; pre-emergence, preemergence, 0 to 100 scale, 0 is no effect, 100 is complete control, read-out: Plant response rating, Morningglory): 0%
- pest or weed control at 125 g/ha [9, 23]: 10%
- pest or weed control at 500 g/ha [9, 23]: 20%
- pest or weed control at 500 g/ha ([9]; pre-emergence, visual rating 0-100, 0 no effect, 100 complete control, read-out: Plant response rating, Velvetleaf): 0%
- pest or weed control at 125 g/ha ([9]; pre-emergence, preemergence, 0 to 100 scale, 0 is no effect, 100 is complete control, read-out: Plant response rating, Velvetleaf): 0%
- pest or weed control at 125 g/ha ([10]; Alopecurus myosuroides, post-emergence, 336 h, postemergence, 125 g ai/ha, visual rating, scale 0 (no effect) to 100 (complete control), read-out: Blackgrass plant response rating): 10%
- pest or weed control at 500 g/ha ([10]; Alopecurus myosuroides, post-emergence, 336 h, postemergence, 500 g ai/ha, visual rating, scale 0 (no effect) to 100 (complete control), read-out: Blackgrass plant response rating): 30%
- plant injury at 500 g/ha ([11]; Triticum aestivum, post-emergence, 336 h, postemergence, 500 g ai/ha, visual rating, scale 0 (no effect) to 100 (complete control), read-out: Wheat plant response rating): 20%
- plant injury at 1000 g/ha ([12]; Oryza sativa, 336 h, read-out: Rice plant response rating): 0%
- pest or weed control at 1000 g/ha ([13]; Cyperus difformis, 336 h, read-out: Sedge, Umbrella plant response rating): 60%
- pest or weed control at 1000 g/ha ([14]; Heteranthera limosa, 336 h, read-out: Ducksalad plant response rating): 0%
- pest or weed control at 1000 g/ha ([15]; Echinochloa crus-galli, 336 h, read-out: Barnyardgrass plant response rating): 0%

SMILES: CCNC(=O)c1ccnc(NC(=O)c2cc(C(C)(C)C)nn2CC)c1 [Compound 152]
- Barnyardgrass plant response rating [1, 24]: 40
- Barnyardgrass plant response rating [1, 25]: 30
- Surinam Grass plant response rating [2, 24]: 40
- Surinam Grass plant response rating [2, 25]: 30
- Cocklebur plant response rating [3, 24]: 90
- Cocklebur plant response rating [3, 25]: 60
- Corn plant response rating [4, 24]: 30
- Corn plant response rating [4, 25]: 20
- Crabgrass, Large plant response rating [5, 24]: 20
- Crabgrass, Large plant response rating [5, 25]: 10
- Foxtail, Giant plant response rating [6, 24]: 20
- Foxtail, Giant plant response rating [6, 25]: 10
- Lambsquarters plant response rating [7, 24]: 80
- Lambsquarters plant response rating [7, 25]: 70
- Morningglory plant response rating [8, 24]: 60
- Morningglory plant response rating [8, 25]: 50
- Velvetleaf plant response rating [9, 24]: 50
- Velvetleaf plant response rating [9, 25]: 50
- Blackgrass plant response rating [10, 24]: 20
- Blackgrass plant response rating [10, 25]: 20
- Wheat plant response rating ([11]; 250 g ai/ha, scale 0 to 100, 0 no effect, 100 complete control, preemergence): 100
- Wheat plant response rating [11, 24]: 10
- Wheat plant response rating [11, 25]: 10
- Rice plant response rating [12]: 70
- Sedge, Umbrella plant response rating [13]: 90
- Ducksalad plant response rating [14]: 80
- Barnyardgrass plant response rating [15]: 80
